According to publication PMC6364417, “Kinase inhibitor library screening identifies synergistic drug combinations effective in sensitive and resistant melanoma cells” (Journal of Experimental & Clinical Cancer Research : CR, 2019):

What was measured:
Assay in all cases: Kinase inhibitor library screening, PrestoBlue cell viability, 1 or 10 μM, 72 h
A375 cells (parental) = test system: A375 cells (parental)
[1] = test system: A375-XP cells (Vemurafenib-resistant)
[2] = test system: IGR37-XP cells (Vemurafenib-resistant)
[3] = test system: 501Mel-GP cells (Dabrafenib-resistant)
[4] = test system: IGR37-GP cells (Dabrafenib-resistant)
[5] = test system: A375-GP cells (Dabrafenib-resistant)
501Mel cells (parental) = test system: 501Mel cells (parental)
Summary of the method: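 PrestoBlue viability readout after 72 h exposure to each inhibitor at 1 or 10 μM, reported relative to untreated cells as % viability. Lines tested: sensitive parental plus derivatives resistant to Vemurafenib (XP) or Dabrafenib (GP), each run at least in duplicate.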

IGR37 cells (parental) = test system: IGR37 cells (parental)
[6] = test system: 501Mel-XP cells (Vemurafenib-resistant)

O=C1NC(=O)[C@@H](c2cn3c4c(cccc24)CCC3)[C@@H]1c1c[nH]c2ccccc12 [ARQ 197 (Tivantinib)]
cell viability (kinase inhibitor library screening) (A375 cells (parental); A375 Parental, 10μΜ, 72 h): 29.2% | cell viability (kinase inhibitor library screening) (A375 cells (parental); A375 Parental, 1μΜ, 72 h): 26.4% | cell viability (kinase inhibitor library screening) ([1]; A375 XP, 1μΜ, 72 h): 34.5% | cell viability (kinase inhibitor library screening) ([1]; A375 XP, 10μΜ, 72 h): 24.5% | cell viability (kinase inhibitor library screening) ([2]; IGR37 XP, 1μΜ, 72 h): 69.4% | cell viability (kinase inhibitor library screening) ([2]; IGR37 XP, 10μΜ, 72 h): 43.0% | cell viability (kinase inhibitor library screening) ([3]; 501Mel GP, 1μΜ, 72 h): 40.8% | cell viability (kinase inhibitor library screening) ([3]; 501Mel GP, 10μΜ, 72 h): 25.6% | cell viability (kinase inhibitor library screening) ([4]; IGR37 GP, 1μΜ, 72 h): 85.1% | cell viability (kinase inhibitor library screening) ([4]; IGR37 GP, 10μΜ, 72 h): 73.0% | cell viability (kinase inhibitor library screening) ([5]; A375 GP, 1μΜ, 72 h): 30.6% | cell viability (kinase inhibitor library screening) ([5]; A375 GP, 10μΜ, 72 h): 32.9% | cell viability (kinase inhibitor library screening) (501Mel cells (parental); 501Mel Parental, 1μΜ, 72 h): 52.2% | cell viability (kinase inhibitor library screening) (501Mel cells (parental); 501Mel Parental, 10μΜ, 72 h): 26.1% | cell viability (kinase inhibitor library screening) (IGR37 cells (parental); IGR37 Parental, 1μΜ, 72 h): 79.8% | cell viability (kinase inhibitor library screening) (IGR37 cells (parental); IGR37 Parental, 10μΜ, 72 h): 16.2% | cell viability (kinase inhibitor library screening) ([6]; 501Mel XP, 1μΜ, 72 h): 25.8% | cell viability (kinase inhibitor library screening) ([6]; 501Mel XP, 10μΜ, 72 h): 10.6%

COc1cc2ncnc(Nc3ccc(F)c(Cl)c3)c2cc1NC(=O)/C=C/CN1CCCCC1 [Dacomitinib (PF299804,PF-00299804)]
cell viability, A375 Parental, 1μΜ (A375 cells (parental); A375 Parental, 1μΜ, 72 h, in %): 94.4 | cell viability, A375 Parental, 10μΜ (A375 cells (parental); A375 Parental, 10μΜ, 72 h, in %): 3.4 | cell viability, A375 XP, 1μΜ ([1]; A375 XP, 1μΜ, 72 h, in %): 96.8 | cell viability, A375 XP, 10μΜ ([1]; A375 XP, 10μΜ, 72 h, in %): 1.1 | cell viability, IGR37 XP, 10μΜ ([2]; IGR37 XP, 10μΜ, 72 h): 1.3% | cell viability, IGR37 XP, 1μΜ ([2]; IGR37 XP, 1μΜ, 72 h, in %): 80.1 | cell viability, 501Mel GP, 1μΜ ([3]; 501Mel GP, 1μΜ, 72 h, in %): 106.7 | cell viability, 501Mel GP, 10μΜ ([3]; 501Mel GP, 10μΜ, 72 h, in %): -0.4 | cell viability, IGR37 GP, 10μΜ ([4]; IGR37 GP, 10μΜ, 72 h): 2.6% | cell viability, A375 GP, 1μΜ ([5]; A375 GP, 1μΜ, 72 h, in %): 97.2 | cell viability, A375 GP, 10μΜ ([5]; A375 GP, 10μΜ, 72 h, in %): 1.9 | cell viability, 501Mel Parental, 10μΜ (501Mel cells (parental); 501Mel Parental, 10μΜ, 72 h, in %): 0.5 | cell viability, IGR37 Parental, 10μΜ (IGR37 cells (parental); IGR37 Parental, 10μΜ, 72 h, in %): 1.1 | cell viability, 501Mel XP, 10μΜ ([6]; 501Mel XP, 10μΜ, 72 h, in %): -0.2

Cl.Cl.Clc1ccc(Nc2nnc(Cc3ccncc3)c3ccccc23)cc1 [Vatalanib dihydrochloride (PTK787)]
cell viability (kinase inhibitor library screening) (A375 cells (parental); A375 Parental, 1μΜ, in %): 105.1 | cell viability (kinase inhibitor library screening) (A375 cells (parental); A375 Parental, 10μΜ, in %): 92.8 | cell viability (kinase inhibitor library screening) ([1]; A375 XP, 10μΜ, in %): 99.5 | cell viability (kinase inhibitor library screening) ([2]; IGR37 XP, 10μΜ, in %): 58.7 | cell viability (kinase inhibitor library screening) ([3]; 501Mel GP, 1μΜ, in %): 106.0 | cell viability (kinase inhibitor library screening) ([3]; 501Mel GP, 10μΜ, in %): 81.7 | cell viability (kinase inhibitor library screening) ([4]; IGR37 GP, 1μΜ, in %): 95.0 | cell viability (kinase inhibitor library screening) ([4]; IGR37 GP, 10μΜ, in %): 83.6 | cell viability (kinase inhibitor library screening) ([5]; A375 GP, 1μΜ, in %): 96.3 | cell viability (kinase inhibitor library screening) ([5]; A375 GP, 10μΜ, in %): 92.3 | cell viability (kinase inhibitor library screening) (501Mel cells (parental); 501Mel Parental, 1μΜ, in %): 98.6 | cell viability (kinase inhibitor library screening) (501Mel cells (parental); 501Mel Parental, 10μΜ, in %): 93.0 | cell viability (kinase inhibitor library screening) (IGR37 cells (parental); IGR37 Parental, 1μΜ, in %): 118.3 | cell viability (kinase inhibitor library screening) (IGR37 cells (parental); IGR37 Parental, 10μΜ, in %): 92.4 | cell viability (kinase inhibitor library screening) ([6]; 501Mel XP, 1μΜ, in %): 94.6 | cell viability (kinase inhibitor library screening) ([6]; 501Mel XP, 10μΜ, in %): 73.0

Cc1cc(Nc2cc(N3CCN(C)CC3)nc(/C=C/c3ccccc3)n2)n[nH]1 [ENMD-2076]
viability at 1 µM (A375 cells (parental); Homo sapiens, A-375, 72 h, read-out: cell viability, A375 Parental, 1μΜ): 67.6% | viability at 10 µM (A375 cells (parental); Homo sapiens, A-375, 72 h, read-out: cell viability, A375 Parental, 10μΜ): 21.2% | viability at 1 µM ([1]; Homo sapiens, A-375, 72 h, read-out: cell viability, A375 XP, 1μΜ): 79.9% | viability at 10 µM ([1]; Homo sapiens, A-375, 72 h, read-out: cell viability, A375 XP, 10μΜ): 19.2% | viability at 1 µM ([2]; Homo sapiens, IGR-37, 72 h, read-out: cell viability, IGR37 XP, 1μΜ): 89.3% | viability at 10 µM ([2]; Homo sapiens, IGR-37, 72 h, read-out: cell viability, IGR37 XP, 10μΜ): 2.2% | viability at 1 µM ([3]; Homo sapiens, 72 h, read-out: cell viability, 501Mel GP, 1μΜ): 99.4% | viability at 10 µM ([3]; Homo sapiens, 72 h, read-out: cell viability, 501Mel GP, 10μΜ): 25.5% | viability at 1 µM ([4]; Homo sapiens, IGR-37, 72 h, read-out: cell viability, IGR37 GP, 1μΜ): 90.4% | viability at 10 µM ([4]; Homo sapiens, IGR-37, 72 h, read-out: cell viability, IGR37 GP, 10μΜ): 5.2% | viability at 1 µM ([5]; Homo sapiens, A-375, 72 h, read-out: cell viability, A375 GP, 1μΜ): 65.8% | viability at 10 µM ([5]; Homo sapiens, A-375, 72 h, read-out: cell viability, A375 GP, 10μΜ): 20.9% | viability at 1 µM (501Mel cells (parental); Homo sapiens, 72 h, read-out: cell viability, 501Mel Parental, 1μΜ): 97% | viability at 10 µM (501Mel cells (parental); Homo sapiens, 72 h, read-out: cell viability, 501Mel Parental, 10μΜ): 3.4% | viability at 1 µM (IGR37 cells (parental); Homo sapiens, IGR-37, 72 h, read-out: cell viability, IGR37 Parental, 1μΜ): 96.5% | viability at 10 µM (IGR37 cells (parental); Homo sapiens, IGR-37, 72 h, read-out: cell viability, IGR37 Parental, 10μΜ): 25.6% | viability at 1 µM ([6]; Homo sapiens, 72 h, read-out: cell viability, 501Mel XP, 1μΜ): 69.3% | viability at 10 µM ([6]; Homo sapiens, 72 h, read-out: cell viability, 501Mel XP, 10μΜ): 1.1%
